Laboratory results reported in patent US5928185A, “Iontophoresis device for the transcutaneous delivery of an active principle such as an anionic oligosaccharide” (Sanofi, priority 1995, dated 1999).

Assay: Administration of pentasaccharide sodium salt in minipigs: iontophoresis vs passive, I.V. and subcutaneous; plasma antifactor Xa (Example 3)
Type: in vivo, minipig (YUCATAN strain)
Procedure: Administration in minipigs of pentasaccharide sodium salt by iontophoresis at a set current density
Specialists consider minipigs of the YUCATAN strain to be an excellent animal model for studying the administration in man of medicaments by iontophoresis. This is because the skin structure of this animal is very similar to that of human skin.
The following tests were carried out on the aforementioned minipig with the aim of comparing the administration of the sodium salt of the pentasaccharide used in the previous examples by iontophoresis with administration by subcutaneous or intravenous injection.
For these tests, pairs of adhesive electrode sets were formed, each pair having a donor electrode assembly formed by a reversible negative electrode (active electrode) in contact with a first reservoir element holding the pentasaccharide to be administered, and a passive electrode assembly formed by a positive electrode (back electrode) in contact with a second reservoir element (receptacle element) holding an indifferent electrolyte.
Referring to the figure, each electrode assembly included a disc 1 of polyethylene foam having an axial cylindrical recess 2, the said disc having an adhesive face 3 and a non-adhesive face 4, each of the said faces having the shape of an annular area with a width of two centimetres. The end 5 of the recess in the disc, on the non-adhesive face side, was closed off by an electrode 6 in the form of a silver disc chlorided on one of its faces, the said disc having a cross-sectional area of 20 cm^2. The chlorided face 7 of the electrode disc is turned towards the interior of the recess. […] The said support disc, having a diameter intermediate between that of the electrode 6 and the disc 1, was bonded onto the non-adhesive face of the latter disc. The recess 2 in the disc 1 was filled with a conductive hydrogel 11 forming the reservoir element. The adhesive face 3 of the disc 1 was coated with a pressure-sensitive adhesive designed to be applied to the skin, the said face 3 and the face 12 adjacent to the reservoir element 11 being initially covered with a peelable non-stick polyester protective film which was removed before application to the skin.
In the donor electrode assembly, the negative electrode (active electrode) of chlorided silver contained a quantity of silver chloride equivalent to 1.8 mAh/cm^2, thus allowing the electrode to sustain the quantity of current flowing through the electrodes over the duration of the iontophoretic treatment, namely 1.2 mAh/cm^2. The reservoir element associated with the negative electrode was filled over a thickness of 2 mm, i.e. a quantity of 4 g over the 20 cm^2 of electrode, with a hydrogel based on xanthan and carob extract having 3% of dry extract and containing 2% by weight of sodium salt of the pentasaccharide of formula (I) given above. The donor electrode assembly therefore contained 80 mg of pentasaccharide in a ratio of 4 mg/cm^2 for each of the animals which were treated.
In the passive electrode assembly, the positive electrode (back electrode) made of chlorided silver contained a quantity of silver chloride equivalent to 0.1 mAh/cm^2, and the reservoir element associated with this electrode consisted of the same hydrogel as the one present in the donor electrode assembly, but without pentasaccharide and instead holding 4% by weight of NaCl.
An electrical signal generator, connectable to the electrodes of each electrode assembly pair, made it possible to deliver between the said electrodes a pulsed electrical signal of controlled intensity, having a frequency of 25 kHz and a duty ratio equal to 50%. […]

[1] = test 3b: iontophoresis 0.20 mA/cm^2, 6 hours
[2] = test 3c: I.V. bolus 0.240 mg/kg
[3] = test 3d: subcutaneous 0.200 mg/kg

- Plasma level at 0 minutes (test 3a: passive, no current): 0 "Golden standard" units of ant
- Plasma level at 5 minutes (test 3a: passive, no current): 0 "Golden standard" units of ant
- Plasma level at 15 minutes (test 3a: passive, no current): 0 "Golden standard" units of ant
- Plasma level at 30 minutes (test 3a: passive, no current): 0 "Golden standard" units of ant
- Plasma level at 1 hour (test 3a: passive, no current): 0 "Golden standard" units of ant
- Plasma level at 2 hours (test 3a: passive, no current): 0 "Golden standard" units of ant
- Plasma level at 4 hours (test 3a: passive, no current): 0 "Golden standard" units of ant
- Plasma level at 6 hours (test 3a: passive, no current): 0 "Golden standard" units of ant
- Plasma level at 8 hours (test 3a: passive, no current): 0 "Golden standard" units of ant
- Plasma level at 12 hours (test 3a: passive, no current): 0 "Golden standard" units of ant
- Plasma level at 24 hours (test 3a: passive, no current): 0 "Golden standard" units of ant
- Plasma level at 30 hours (test 3a: passive, no current): 0 "Golden standard" units of ant
- plasma levels, expressed in terms of antifactor Xa, compared with intravenous or subcutaneous injections (test 3b: iontophoresis): higher plasma levels
- Plasma level at 0 minutes [1]: 0 "Golden standard" units of ant
- Plasma level at 30 hours [1]: 0 "Golden standard" units of ant
- bioavailability (active principle administered, normalized to quantity present in the electrodes) (test 3b, 80 mg engaged): about 9%
- quantity of pentasaccharide administered per mAh (test 3b, for 1 mAh/cm^2): 292 μg/cm^2
- quantity of pentasaccharide administered per cm^2 (test 3b, for 1.2 mAh/cm^2): 350 μg/cm^2
- quantity of pentasaccharide actually administered by iontophoresis (test 3b, for the 20 cm^2, from areas under the curves): 7 ± 1.3 mg
- Plasma level at 0 minutes [2]: 0 "Golden standard" units of ant
- Plasma level at 24 hours [2]: 0 "Golden standard" units of ant
- Plasma level at 30 hours [2]: 0 "Golden standard" units of ant
- Plasma level at 0 minutes [3]: 0 "Golden standard" units of ant
- Plasma level at 24 hours [3]: 0 "Golden standard" units of ant
- Plasma level at 30 hours [3]: 0 "Golden standard" units of ant
SMILES: O=C(O)C1OC(OC2C(COS(=O)(=O)O)OC(OC3C(C(=O)O)OC(OC4C(COS(=O)(=O)O)OC(O)C(NS(=O)(=O)O)C4O)C(OS(=O)(=O)O)C3O)C(NS(=O)(=O)O)C2OS(=O)(=O)O)C(O)C(O)C1OC1OC(COS(=O)(=O)O)C(O)C(O)C1NS(=O)(=O)O (centres unmarked) [pentasaccharide]
- Plasma level at 15 minutes [1]: 0.06 ± 0.04 "Golden standard" units of ant
- Plasma level at 30 minutes [1]: 0.15 ± 0.12 "Golden standard" units of ant
- Plasma level at 1 hour [1]: 0.31 ± 0.15 "Golden standard" units of ant
- Plasma level at 2 hours [1]: 0.45 ± 0.2 "Golden standard" units of ant
- Plasma level at 4 hours [1]: 0.64 ± 0.18 "Golden standard" units of ant
- Plasma level at 6 hours [1]: 0.74 ± 0.16 "Golden standard" units of ant
- Plasma level at 8 hours [1]: 0.52 ± 0.13 "Golden standard" units of ant
- Plasma level at 12 hours [1]: 0.4 ± 0.08 "Golden standard" units of ant
- Plasma level at 24 hours [1]: 0.11 ± 0.03 "Golden standard" units of ant
- Plasma level at 5 minutes [2]: 1.04 ± 0.12 "Golden standard" units of ant
- Plasma level at 15 minutes [2]: 0.91 ± 0.13 "Golden standard" units of ant
- Plasma level at 30 minutes [2]: 0.65 ± 0.11 "Golden standard" units of ant
- Plasma level at 1 hour [2]: 0.53 ± 0.10 "Golden standard" units of ant
- Plasma level at 2 hours [2]: 0.30 ± 0.09 "Golden standard" units of ant
- Plasma level at 4 hours [2]: 0.29 ± 0.08 "Golden standard" units of ant
- Plasma level at 6 hours [2]: 0.22 ± 0.09 "Golden standard" units of ant
- Plasma level at 8 hours [2]: 0.17 ± 0.06 "Golden standard" units of ant
- Plasma level at 12 hours [2]: 0.07 ± 0.05 "Golden standard" units of ant
- Plasma level at 15 minutes [3]: 0.11 ± 0.04 "Golden standard" units of ant
- Plasma level at 1 hour [3]: 0.17 ± 0.01 "Golden standard" units of ant
- Plasma level at 2 hours [3]: 0.22 ± 0.04 "Golden standard" units of ant
- Plasma level at 4 hours [3]: 0.26 ± 0.06 "Golden standard" units of ant
- Plasma level at 6 hours [3]: 0.24 ± 0.01 "Golden standard" units of ant
- Plasma level at 8 hours [3]: 0.15 ± 0.07 "Golden standard" units of ant
- Plasma level at 12 hours [3]: 0.08 ± 0.03 "Golden standard" units of ant
